# Measured values: US5858995A, “Benzofuran derivatives useful as inhibitors of bone resorption” (Fujisawa Pharmaceutical Co., Ltd., priority 1994, dated 1999)
# Tested on: PTH-induced bone resorption (calvariae)
# Assay: Bone organ culture: inhibition of PTH-induced bone resorption in rat calvariae
# Type: cell-based
# Settings: Compound dose = 1 × 10^-5 (M); calvariae from Wistar rats, 10^-8 M human PTH (1-34); calcium in medium after six days
# Protocol: Test (Bone organ culture)
# Calvariae from Wistar rats were excised and cultured in wells of 12-well culture plates containing 2 ml of Dulbecco's modified minimum essential medium supplemented with 10% fetal bovine serum and 10^-8 M human parathyroid hormone fragment (1-34) [PTH] in the presence of the test compound. In control dishes, PTH was not added. Control and PTH control were exposed to an equivalent concentration of the vehicle. Six days later, the concentration of calcium in the medium was measured by methylxylenol blue method and the percentage of inhibition of PTH-induced bone resorption was calculated according to following formula. [formula] Test Result
smiles,measurement,value
"Cc1oc2c(NC(=O)c3c(Cl)cccc3Cl)cccc2c1C [Test Compound (1), 7-(2,6-Dichlorobenzoylamino)-2,3-dimethylbenzo[b]furan]",Inhibition (%) of PTH-induced bone resorption,100%
